# Article PMC7153038, “Pharmacologic inhibition of RGD‐binding integrins ameliorates fibrosis and improves function following kidney injury” (Physiological Reports, 2020)
# Like-named read-outs stand apart in the source and are kept apart here.
# Legend:
# [1] = system: Collagen 1 protein in kidney; assay: aristolochic acid kidney injury model, Collagen 1 Western blot; assay type: in vivo, mouse; conditions: AA-injured, 100 mg/kg/day s.c. minipump
# Protocol: Alzet osmotic minipumps (Cupertino, CA) were implanted subcutaneously in 8‐ to 10‐week‐old wild‐type male ICR outbred mice (Envigo) one day prior to induction of kidney injury to deliver vehicle (DMSO/H2O 1:1) or CWHM‐12 at a dose of 100 mg/kg per day. A single 5 mg/kg dose of aristolochic acid I sodium salt (Sigma‐Aldrich, A9451) in PBS was administered intraperitoneally to induce kidney injury, and mice were monitored daily for 27 days thereafter. Control (uninjured) mice were injected with an equal volume of PBS. Blood was obtained by maxillary vein puncture on days 0, 5 (peak injury), and 28 (study endpoint). For testing CWHM‐680, oral gavage (100 mg/kg per day) was started one day prior to injection of aristolochic acid I sodium salt and continued once daily until the study endpoint. Blood was obtained at days 0, 7, and 23 (study endpoint). […] Serum creatinine was measured by liquid chromatography–mass spectrometry (LC–MS/MS) at the University of Alabama O’Brien Center Bioanalytical Core. CWHM‐12 and CWHM‐680 concentrations were measured in plasma samples by liquid chromatography–tandem mass spectrometry (LC/MS/MS) using compound spiked into control plasma as a standard. All experiments were performed under protocols approved by the Institutional Animal Care and Use Committee at St. Louis University. […]
# integrin α5β1 = target: T1, integrin α5β1 (Homo sapiens, UniProt P05556+P08648); assay: integrin α5β1-mediated attachment of K562 cells to human plasma fibronectin; assay type: cell-based; conditions: mean and SD, at least 3 independent assays, read-out: IC50, inhibition of α5β1-mediated cell attachment
# T1 construct: K562 cells, which naturally express this integrin; endogenous in cells; host or cells: K562
# T1 sequence (P08648 42-894 limits assumed): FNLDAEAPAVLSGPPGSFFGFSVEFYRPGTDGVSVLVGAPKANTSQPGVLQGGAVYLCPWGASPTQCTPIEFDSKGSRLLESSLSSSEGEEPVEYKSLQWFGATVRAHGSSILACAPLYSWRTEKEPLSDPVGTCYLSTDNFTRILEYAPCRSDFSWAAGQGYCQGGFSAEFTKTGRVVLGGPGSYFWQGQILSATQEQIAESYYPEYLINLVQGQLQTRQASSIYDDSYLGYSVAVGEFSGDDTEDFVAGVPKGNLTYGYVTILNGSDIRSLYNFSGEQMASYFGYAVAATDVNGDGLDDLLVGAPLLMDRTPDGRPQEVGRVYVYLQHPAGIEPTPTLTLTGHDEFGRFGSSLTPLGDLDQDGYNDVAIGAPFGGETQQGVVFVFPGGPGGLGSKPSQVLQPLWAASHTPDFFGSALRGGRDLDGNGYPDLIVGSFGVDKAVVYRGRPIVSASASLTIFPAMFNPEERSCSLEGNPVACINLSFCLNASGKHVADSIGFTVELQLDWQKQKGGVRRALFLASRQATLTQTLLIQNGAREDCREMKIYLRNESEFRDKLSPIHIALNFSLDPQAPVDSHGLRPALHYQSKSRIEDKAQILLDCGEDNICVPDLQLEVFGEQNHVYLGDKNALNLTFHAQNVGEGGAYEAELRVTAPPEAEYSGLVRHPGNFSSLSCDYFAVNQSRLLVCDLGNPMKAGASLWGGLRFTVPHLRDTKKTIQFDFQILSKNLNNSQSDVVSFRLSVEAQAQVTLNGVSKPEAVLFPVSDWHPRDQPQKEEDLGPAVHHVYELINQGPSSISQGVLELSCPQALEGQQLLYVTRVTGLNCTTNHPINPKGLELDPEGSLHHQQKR
# T1 sequence (P08648 895-1049 partner limits assumed): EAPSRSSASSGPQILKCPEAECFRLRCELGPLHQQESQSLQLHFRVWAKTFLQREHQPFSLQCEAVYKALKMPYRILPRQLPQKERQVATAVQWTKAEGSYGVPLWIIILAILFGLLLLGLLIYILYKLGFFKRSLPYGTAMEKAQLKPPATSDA
# T1 sequence (P05556 21-798): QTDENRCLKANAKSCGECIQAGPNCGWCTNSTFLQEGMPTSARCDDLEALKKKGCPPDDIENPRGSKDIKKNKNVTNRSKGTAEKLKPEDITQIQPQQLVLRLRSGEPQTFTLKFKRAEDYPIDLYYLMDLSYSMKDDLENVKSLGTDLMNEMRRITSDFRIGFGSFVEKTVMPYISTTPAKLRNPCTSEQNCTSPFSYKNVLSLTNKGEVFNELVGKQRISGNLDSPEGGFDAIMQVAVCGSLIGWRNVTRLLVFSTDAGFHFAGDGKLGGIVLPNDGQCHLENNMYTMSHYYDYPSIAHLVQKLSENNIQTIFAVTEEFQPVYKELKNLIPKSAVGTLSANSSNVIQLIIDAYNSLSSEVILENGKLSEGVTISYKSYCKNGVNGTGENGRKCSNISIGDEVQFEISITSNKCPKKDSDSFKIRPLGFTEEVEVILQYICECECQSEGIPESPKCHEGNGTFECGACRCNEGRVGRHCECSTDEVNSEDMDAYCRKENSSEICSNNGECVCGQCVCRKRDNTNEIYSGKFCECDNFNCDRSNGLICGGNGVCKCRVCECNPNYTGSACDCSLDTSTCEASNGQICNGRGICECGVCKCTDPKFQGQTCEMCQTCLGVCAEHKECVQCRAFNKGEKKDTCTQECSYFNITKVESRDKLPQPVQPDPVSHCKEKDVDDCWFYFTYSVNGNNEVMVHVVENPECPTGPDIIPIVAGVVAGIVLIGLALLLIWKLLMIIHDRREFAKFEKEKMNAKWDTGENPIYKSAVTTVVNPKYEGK
# [2] = observation of deleterious effects in treated animals; assay type: in vivo, mouse; conditions: 100 mg/kg/day s.c. minipump, 28 days
# Protocol: Alzet osmotic minipumps (Cupertino, CA) were implanted subcutaneously in 8‐ to 10‐week‐old wild‐type male ICR outbred mice (Envigo) one day prior to induction of kidney injury to deliver vehicle (DMSO/H2O 1:1) or CWHM‐12 at a dose of 100 mg/kg per day. A single 5 mg/kg dose of aristolochic acid I sodium salt (Sigma‐Aldrich, A9451) in PBS was administered intraperitoneally to induce kidney injury, and mice were monitored daily for 27 days thereafter. Control (uninjured) mice were injected with an equal volume of PBS. Blood was obtained by maxillary vein puncture on days 0, 5 (peak injury), and 28 (study endpoint). For testing CWHM‐680, oral gavage (100 mg/kg per day) was started one day prior to injection of aristolochic acid I sodium salt and continued once daily until the study endpoint. Blood was obtained at days 0, 7, and 23 (study endpoint). […] Serum creatinine was measured by liquid chromatography–mass spectrometry (LC–MS/MS) at the University of Alabama O’Brien Center Bioanalytical Core. CWHM‐12 and CWHM‐680 concentrations were measured in plasma samples by liquid chromatography–tandem mass spectrometry (LC/MS/MS) using compound spiked into control plasma as a standard. All experiments were performed under protocols approved by the Institutional Animal Care and Use Committee at St. Louis University.
# integrin αvβ3 = integrin αvβ3 (Homo sapiens, UniProt P05106+P06756); assay: integrin αvβ3-mediated cell attachment to ligand; assay type: cell-based; conditions: mean and SD, at least 3 independent assays, read-out: IC50, inhibition of αvβ3-mediated cell attachment
# Sequence of integrin αvβ3 (P06756 31-889 limits assumed): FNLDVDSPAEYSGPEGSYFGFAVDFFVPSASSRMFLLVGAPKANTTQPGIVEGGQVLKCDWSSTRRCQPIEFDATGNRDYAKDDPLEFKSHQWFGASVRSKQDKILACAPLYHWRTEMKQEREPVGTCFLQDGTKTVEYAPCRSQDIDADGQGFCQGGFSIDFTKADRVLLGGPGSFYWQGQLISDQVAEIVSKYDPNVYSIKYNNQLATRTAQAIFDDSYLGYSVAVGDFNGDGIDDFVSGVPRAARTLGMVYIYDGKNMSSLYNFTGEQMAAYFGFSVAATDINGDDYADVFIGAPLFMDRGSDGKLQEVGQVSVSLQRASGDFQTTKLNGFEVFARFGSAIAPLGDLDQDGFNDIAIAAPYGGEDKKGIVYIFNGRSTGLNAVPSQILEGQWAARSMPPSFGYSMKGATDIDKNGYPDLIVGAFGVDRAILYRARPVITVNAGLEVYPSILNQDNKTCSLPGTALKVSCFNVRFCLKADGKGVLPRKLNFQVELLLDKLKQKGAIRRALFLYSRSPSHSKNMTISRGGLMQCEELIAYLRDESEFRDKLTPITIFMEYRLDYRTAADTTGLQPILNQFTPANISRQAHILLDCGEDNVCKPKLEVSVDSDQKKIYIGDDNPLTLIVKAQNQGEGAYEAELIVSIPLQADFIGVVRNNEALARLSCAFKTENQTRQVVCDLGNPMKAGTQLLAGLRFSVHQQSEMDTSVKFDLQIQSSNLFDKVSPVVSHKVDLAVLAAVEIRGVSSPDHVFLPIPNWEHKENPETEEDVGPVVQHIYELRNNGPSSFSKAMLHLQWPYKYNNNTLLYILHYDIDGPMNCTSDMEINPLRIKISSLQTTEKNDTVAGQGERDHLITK
# Sequence of integrin αvβ3 (P06756 891-1048 partner limits assumed): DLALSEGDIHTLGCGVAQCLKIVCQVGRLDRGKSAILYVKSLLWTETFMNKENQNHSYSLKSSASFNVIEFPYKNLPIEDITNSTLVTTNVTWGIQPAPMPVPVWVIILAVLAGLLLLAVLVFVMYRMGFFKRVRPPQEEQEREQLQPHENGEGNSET
# Sequence of integrin αvβ3 (P05106 27-788): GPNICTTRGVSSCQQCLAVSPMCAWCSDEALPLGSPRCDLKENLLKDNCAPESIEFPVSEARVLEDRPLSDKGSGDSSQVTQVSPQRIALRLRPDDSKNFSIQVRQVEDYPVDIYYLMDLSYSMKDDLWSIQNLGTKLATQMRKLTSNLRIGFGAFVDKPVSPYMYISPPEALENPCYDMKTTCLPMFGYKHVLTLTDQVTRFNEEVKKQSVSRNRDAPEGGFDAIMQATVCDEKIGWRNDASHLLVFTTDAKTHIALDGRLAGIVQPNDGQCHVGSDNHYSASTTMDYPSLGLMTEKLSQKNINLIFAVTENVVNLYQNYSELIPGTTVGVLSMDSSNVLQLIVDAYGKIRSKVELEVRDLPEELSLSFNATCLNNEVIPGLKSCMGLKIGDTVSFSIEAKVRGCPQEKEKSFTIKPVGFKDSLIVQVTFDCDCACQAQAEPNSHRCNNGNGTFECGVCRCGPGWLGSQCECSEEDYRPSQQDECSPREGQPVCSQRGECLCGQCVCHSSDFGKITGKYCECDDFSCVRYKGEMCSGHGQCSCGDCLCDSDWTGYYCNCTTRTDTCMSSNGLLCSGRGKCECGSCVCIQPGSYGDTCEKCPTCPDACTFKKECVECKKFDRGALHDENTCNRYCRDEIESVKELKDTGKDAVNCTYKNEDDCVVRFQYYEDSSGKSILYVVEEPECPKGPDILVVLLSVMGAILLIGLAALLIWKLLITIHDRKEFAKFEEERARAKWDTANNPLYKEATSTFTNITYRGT
# Protocol: (§1) The RGD peptidomimetic CWHM‐12 was synthesized as described in detail previously (Henderson et al., 2013). A close structural analog of this compound with improved oral bioavailability, CWHM‐680, was also synthesized at Saint Louis University. Potency for the compounds in blocking cell attachment mediated by integrins αvβ3, αvβ5, and αvβ6 was measured as previously described (Henderson et al., 2013). Potency for blocking cell attachment mediated by integrins αvβ1, αvβ8, and α8β1 was measured using modifications of this method which are briefly summarized as follows: To assess CWHM‐12 and CWHM‐680 effects on cellular αvβ1 function, we varied its concentration in an assay measuring binding of HEK‐293 cells, which naturally express this integrin (Nagarajan et al., 2007), to the surface of 96‐well plates coated with purified recombinant human TGFβ‐1 latency‐associated peptide (R&D Systems). To assess the effect on cellular αvβ8 function, we performed the assay with the same LAP ligand but with HEK‐293 cells which had been stably transfected to overexpress this integrin. To assess the effect on cellular α8β1 function, we performed the assay using HEK‐293 cells, which had been stably transfected to overexpress this integrin and used purified recombinant mouse nephronectin as the immobilized ligand (R&D Systems). […]
# integrin αvβ1 = target: T2, integrin αvβ1 (Homo sapiens, UniProt P05556+P06756); assay: integrin αvβ1-mediated attachment of HEK-293 cells to TGFβ-1 latency-associated peptide; assay type: cell-based; conditions: mean and SD, at least 3 independent assays, LAP ligand
# T2 construct: HEK‐293 cells, which naturally express this integrin; endogenous in cells; host or cells: HEK-293
# T2 sequence (P06756 31-889 limits assumed): as the sequence (P06756 31-889 limits assumed) above
# T2 sequence (P06756 891-1048 partner limits assumed): as the sequence (P06756 891-1048 partner limits assumed) above
# T2 sequence (P05556 21-798): as the sequence (P05556 21-798) above
# Protocol: as §1
# [3] = system: non‐RGD‐binding integrins; design: method as in Henderson et al., 2013; conditions: ref Henderson et al., 2013; cited from earlier work
# integrin αIIbβ3 = system: integrin αIIbβ3; design: method as in Henderson et al., 2013; conditions: no significant activity; ref Henderson et al., 2013; read-out: activity against integrin αIIbβ3; cited from earlier work
# integrin αvβ8 = target: T3, integrin αvβ8 (Homo sapiens, UniProt P06756+P26012); assay: integrin αvβ8-mediated attachment of transfected HEK-293 cells to LAP; assay type: cell-based; conditions: mean and SD, at least 3 independent assays; transfected HEK-293, LAP ligand; read-out: IC50, inhibition of αvβ8-mediated cell attachment
# T3 construct: expressed in transfected cells
# T3 sequence (P06756 31-889 limits assumed): as the sequence (P06756 31-889 limits assumed) above
# T3 sequence (P06756 891-1048 partner limits assumed): as the sequence (P06756 891-1048 partner limits assumed) above
# T3 sequence (P26012 43-769): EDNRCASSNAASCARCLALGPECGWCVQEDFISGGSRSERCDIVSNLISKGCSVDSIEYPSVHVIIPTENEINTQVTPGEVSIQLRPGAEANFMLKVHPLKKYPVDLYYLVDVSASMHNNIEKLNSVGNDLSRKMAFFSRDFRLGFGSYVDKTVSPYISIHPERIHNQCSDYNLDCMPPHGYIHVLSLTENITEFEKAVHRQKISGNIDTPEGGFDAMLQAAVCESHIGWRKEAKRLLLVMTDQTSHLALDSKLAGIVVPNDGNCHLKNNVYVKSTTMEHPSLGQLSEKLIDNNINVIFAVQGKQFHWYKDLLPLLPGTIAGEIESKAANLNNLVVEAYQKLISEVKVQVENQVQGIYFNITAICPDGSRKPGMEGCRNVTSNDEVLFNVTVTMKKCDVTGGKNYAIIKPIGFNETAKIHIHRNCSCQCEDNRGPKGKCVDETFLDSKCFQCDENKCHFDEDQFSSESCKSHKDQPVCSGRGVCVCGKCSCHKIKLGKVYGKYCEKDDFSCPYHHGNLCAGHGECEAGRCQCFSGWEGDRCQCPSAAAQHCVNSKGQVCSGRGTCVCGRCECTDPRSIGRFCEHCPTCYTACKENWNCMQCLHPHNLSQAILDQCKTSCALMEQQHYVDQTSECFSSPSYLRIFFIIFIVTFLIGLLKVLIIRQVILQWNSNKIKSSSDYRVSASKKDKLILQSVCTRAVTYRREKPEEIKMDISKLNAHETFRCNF
# Protocol: as §1
compound,measurement,setting,value
CC(C)(C)c1cc(Br)cc([C@H](CC(=O)O)NC(=O)CNC(=O)c2cc(O)cc(NC3=NCC(O)CN3)c2)c1 (some centres unmarked) [CWHM‐12],Collagen 1 protein reduction by Western blot compared with vehicle,[1]; day 27,threefold
same,Collagen 1 densitometry normalized to HDAC2,[1]; vehicle 2.14 ± 0.39,0.719 ± 0.13 arbitrary units
same,IC50,integrin α5β1,8 ± 3.9 nM
same,obvious deleterious effects in treated animals,[2],did not observe obvious deleterious effects
same,IC50,integrin αvβ3; listed as CWHM−12,0.47 ± 0.45 nM
same,IC50,integrin αvβ3,< 1 nM
same,IC50,"integrin αvβ1; listed as CWHM−12, read-out: IC50, inhibition of αvβ1-mediated cell attachment",0.29 ± 0.14 nM
same,IC50,"integrin αvβ1; read-out: IC50, inhibition of αvβ1-mediated cell attachment",< 1 nM
same,effect on ligand binding by non‐RGD‐binding integrins,[3],nor does it affect ligand binding
same,IC50,integrin αIIbβ3,> 5000 nM
same,IC50,integrin αvβ8,5.8 ± 2.3 nM
